Measurements from patent US20050256179A1, “Selective pharmacologic inhibition of protein trafficking and related methods of treating human diseases” (priority 2003, published 2005).
pIC50: −log10 of the molar value.

Assays:
Format in all cases: cell-based
MOLT4 cells = test: Electron microscopic analysis of golgi structure; conditions: 200 ng/mL, 2 hrs and 18 hrs
Method: Experiments were conducted to examine the golgi structure and morphology on the ultrastructural level following treatment with AVP 893. […] This finding was repeated with Vero cells, where AVP 893 was applied for 1 hr, 4 hrs, and 18 hrs, with the later two exposures resulting in disruption of cisternal structure (data not shown). We therefore conclude that AVP 893 disturbs the structure of the golgi cistemae within a few hours of treatment.

HSV-2 [1] = test: Spread of HSV-2 in infected cultures (glycoprotein E labeling); conditions: 300 ng/ml applied 16 hr prior to virus inoculation
Method: (§1) The effect of AVP 893 on the spread of viral infection was further investigated. AVP 893 (at 300 ng/ml) was applied 16 hr prior to virus inoculation. Time points shown in FIG. 45 represent the hours after virus inoculation. […] In addition to the immunocytochemistry work shown in FIG. 45, extensive in vitro plaque assays were performed on HSV-1 and -2, as well as other families of virus that use the golgi in their life cycle (see Table 2).
We determined whether viral particles (as visualized in FIG. 45 by labeling HSV-2 glycoprotein E) spread beyond the initial site of infection in the presence of AVP 893. HSV-2-infected cultures were treated with AVP 893. […] Other HSV proteins including gB, gD, and the capsid protein ICP5 were also examined with similar results (data not shown). […] Furthermore, AVP 893 didn't appear to stop the initial infection of the culture, only the subsequent spread of the virus.

mouse spleen cells = test: Proliferation of IL-4/anti-CD40 Ab-stimulated mouse spleen cells; conditions: read-out: anti-proliferative potency
Method: BALB/c spleen cells were cultured for 20 hours in the presence of stimulus+/−AVP 893 (100 ng/ml) and harvested and prepared as described in FIG. 17. Stimulus conditions include: LPS (10 μg/ml), IL-4 (10 ng/ml) plus anti-CD40 Ab (100 ng/ml), PMA (10 ng/ml) plus ionomycin (100 nM), or Con A (5 μg/ml). […] This experiment was carried out as described for FIG. 21, except that different AVP compounds with high (AVP 893, 5 nM), medium (AVP 26297, 50 nM), and low (AVP 25630, 500 nM) anti-proliferative potency were tested and compared. AVP 893 was tested at 1, 10, and 100 ng/ml; AVP 26297 was tested at 1, 10, 100, and 1000 ng/ml; AVP 25630 was tested at 10, 100, and 1000 ng/ml.

GS28 mRNA = GS28 mRNA by RT-PCR in human PBL; conditions: 3 to 16 hours following addition of drug
Method: Human buffy coats were purchased from the San Diego Blood Bank. Buffy Coat was purified of red blood cells using Histopaque-1077 following Sigma Diagnostic protocol. Lymphocytes (20 million) were then cultured in 75 cm2 flasks in cDMEM (+/−stimulus & AVP 893) for either 4 or 24 hrs. Cells were harvested and reconstituted in a Guanidine/Phenol solution essentially as described by Maniatis. The aqueous layer was removed and washed with Guanidine solution and finally 70% EtOH. RNA purity was checked by spectrophotometer. RT-PCR (36 cycles) was performed following the RT-PCR One-Step protocol (Qiagen). Similar results were obtained when testing mRNA samples obtained from other cell sources (not shown).

HSV-2 [2] = test: HSV-2 plaque formation in Vero cells
Method: An important potential consequence of blocking normal vesicle movement between the ER and golgi is the inhibition of viral protein maturation and intracellular propagation. Most viruses rely on the classical ER-to-golgi pathway for assimilating its proteins and, ultimately, infectivity. Brefeldin A causes the accumulation of viral proteins in the ER-golgi. The capacity of AVP 893 to inhibit viral propagation was tested in vitro by infecting Vero cells with HSV-2 and observing the effect of increasing concentrations of drug (FIG. 44). Vero cells (1 million/ml) were cultured overnight and inoculated with about 150 PFU of live type 2 Herpes Virus (HSV-2, ATCC) about 1 hour after addition of AVP 893. After 48 hours, media was removed and the cells washed with saline and stained with Biological Plaque Stain for 20 min. One ml of water was added and the liquid removed before quantifying virus by enumerating PFU.

[3] = system: viruses from families likely to utilize the golgi; test: In vitro testing of other viral families; conditions: Table 4
Method: as §1
Representative viruses from families likely to utilize the golgi were tested. […] (data not shown).

Compound: O=C(Nc1ccc(-c2nc3cc(NC(=O)C4CCCCC4)ccc3[nH]2)cc1)C1CCCCC1 [AVP 893]
- golgi structure by electron microscopy (MOLT4 cells): no golgi cisternae were found
- spread of HSV-2 beyond the initial site of infection (HSV-2 [1]): blocked the spread of HSV-2 virus particles
- pIC50 (mouse spleen cells): 8.30
- level of GS28 mRNA (GS28 mRNA): did not affect the level of GS28 mRNA
- plaque formation (HSV-2 [2]; HSV-2, 48 hours): suppressed plaque formation at all concentrations tested
- concentration giving total block of plaque formation (HSV-2 [2]; about 150 PFU HSV-2, 48 hours): 300 ng/mL
- spread of other viral families [3]: inhibited
